Laboratory results published in patent publication US20050132438A1, “Novel monocotylednous plant genes and uses thereof” (priority 2000, published 2005).

Test system: wheat NIM1 homologue mRNA transcripts
Test: RNA gel blot of wheat RNA probed with the KL1/KL2 PCR product of the wheat NIM1 homologue
Format: in vivo
Conditions: polyA+ RNA from leaf tissue of young wheat plants, BTH-treated for 24 h
Description: The PCR product from wheat genomic DNA that is obtained with PCR primers KL1 and KL2 (SEQ ID NO:3 and SEQ ID NO:4, respectively) is used to probe gel blots of wheat RNA. […] The smaller transcript corresponds to the size detected in total RNA. […] The wheat “NIM loop”-described above is also used as a probe.

SMILES: CSC(=O)c1cccc2nnsc12 [BTH, benzo(1,2,3)thiadiazole-7-carbothioic acid S-methyl ester]
- abundance of the two NIM1 homologue transcripts, BTH-treated versus untreated plants: equal abundance
